Test results taken from paper PMC7145549, “A general strategy exploiting m^5C duplex-remodelling effect for selective detection of RNA and DNA m^5C methyltransferase activity in cells” (Nucleic Acids Research, 2019).
Entries after “also recorded” stand apart in the source; their conditions may differ. Like-named read-outs stand apart in the source and are kept apart here. Values belong to the molecule of their own block, whether it stands above or below them.

Legend:
[1] = Fluorescence emission and quantum yield analysis of probes; format: physicochemical; settings: in MeOH, reference standard, authors' conditions
Experimental: Fluorescence analysis was performed using a Cary Eclipse fluorescence spectrophotometer, as previously reported with modifications ([36]). The fluorescence emission spectra (λem = 400–600 nm) of the probes were recorded in a quartz cuvette at 37°C, at a total stand concentration 5 μM in a buffer of 10 mM sodium phosphate buffer (pH 7.4) containing 150 mM NaCl and 20 mM MgCl2. An average of five scans was recorded. Background fluorescence spectra were acquired after the probe has been incubated for 30 min at 37°C. For determination of fluorescence quantum yields of the m^5C-probes, see Supplementary Data.
The fluorescence quantum yields (ΦF) of pyrene (Py)-labelled DNA probes 11a-c were determined as previously described.7,11 UV absorption of the probes λex 340 nm was measured on a Cary-300 UV-Visible spectrophotometer (Varian Inc.) from 0.1 to 0.03 absorbance units in 0.01 increments. The fluorescence emission spectra were immediately measured afterwards in a Cary Eclipse (Varian Inc.) fluorescent spectrophotometer with an excitation wavelength of 340 nm. Pyrenebutanoic acid (PBA) in methanol was used as a reference, and was calculated using the equation below. The reported quantum yields are an average of three measurements within ±10%. […]
ΦF(PBA) is the cross-calibrated value for the fluorescence quantum emission yield of pyrenebutanoic acid (PBA) in MeOH. […]

NSUN2 [2] = target: T1, NSUN2 (Homo sapiens, UniProt Q08J23); assay: Cell-based m5C-probe methyltransferase assay (flow cytometry, probe 9a)
Experimental: The HeLa cells were pre-incubation with various concentrations of non-specific MTase inhibitors, including sinefungin, S-adenosyl-L-homocysteine (SAH), adenosine, and homocysteine at 37°C for 30 min. Nine different concentrations of inhibitors were used (0.1, 0.3, 1, 3, 10, 50, 100, 250, 1000 μM) and the final DMSO concentration was kept at less than 1% (v/v) of the assay mix. […] This was followed by the delivery of either the m^5C-probe 9a (10 μM) or control probe 10a (10 μM) into the cells via Lipofectamine 2000. Aliquots were then collected for flow cytometry measurements (λex 355 nm; λem 425–475 nm) at the indicated time points. The mean fluorescence intensity of at least 20 000 live cells was determined. IC50 determination: the IC50 values were then calculated from the variation in fluorescence at different inhibitor concentrations using nonlinear regression, with normalised dose-response fit on GraphPad Prism 6.0™. The assay was performed in triplicate for each inhibitor concentration. Z’ factor determination: the Z’ factor for our m^5C-probe assay was calculated using previously described method ([55]). For details, see Supplementary Data. […]
Cell-based m5C-probe methyltransferase assay
The HeLa cells were pre-incubation with various concentrations of DNA/RNA MTase inhibitors, including sinefungin, S-adenosyl-L-homocysteine (SAH), adenosine, and homocysteine at 37 °C for […]
and the final DMSO concentration was kept at less than 1% v/v of the assay mix. These concentrations […]
by the delivery of either the m5C-probe 9a (10 μM) or control probe 10a (10 μM) into the cells via Lipofectamine 2000, as described above. Aliquots were then collected for flow cytometry measurements (λex 355 nm; λem 425-475 nm) at the indicated time points. The mean fluorescence intensity of at least 20,000 live cells was determined.
For IC50 determination: the IC50 value were then calculated from the variation in fluorescence at different inhibitor concentrations using nonlinear regression, with normalised dose-response fit on GraphPad Prism 6.0™. The assay was performed in triplicate for each inhibitor concentration.
For the determination of Z’ factor: the Z’ factor for our m5C-probe assay was calculated using the method described by Zhang et al.17 A total of 40 independent assays were run with either sinefungin (1 mM; positive control) or DMSO (1% v/v; negative control). The Z’ factor was then calculated using […]
Where µp and µn are the means of the positive (p) and negative (n) controls σp and σn are the standard deviations of the positive (p) and negative (n) controls.

[3] = free fluorophore; cited from earlier work
DNMT3A = target: T2, DNMT3A (Homo sapiens, UniProt Q9Y6K1); assay: In vitro DNMT3A inhibition assay with DNA m5C-probe 11a; format: biochemical; settings: probe 11a 5 μM, DNMT3A 0.5 μM, 30 min; read-out: IC50 against DNMT3A
T2 construct: Full-length human DNMT3A protein containing N-terminal His-DDDDK tag was purchased from; His-DDDDK (N); purchased abcam plc; UK ab170408
Experimental: (§1) RNA methyltransferase assay: the assay was performed at 37°C in triplicate in a Corning Costar 96-well flat bottom black plate. Reaction consisted of enzyme (0.5 μM), methyl donor S-adenosyl-L-methionine (SAM; 200 μM), m^5C-probe 9a (substrate; 5 μM) or locked-probe 10a (control; 5 μM) in a 50 mM HEPES buffer (pH 7.4) containing 150 mM NaCl and 20 mM MgCl2. The final reaction volume is 25 μl. The time course of fluorescence activation was recorded immediately after the addition of enzyme with a Tecan ultra microplate reader (λex 360 nm; λem 465 nm). An average of five scans was recorded. DNA methyltransferase assay: the assay was performed as described above. Reaction consisted of enzyme (NSUN2 or DNMT3A; 0.5 μM), methyl donor S-adenosyl-L-methionine (SAM; 200 μM), DNA m^5C-probe 11a (substrate; 5 μM) in a 50 mM HEPES buffer (pH 7.4) containing 150 mM NaCl and 20 mM MgCl2. The fluorescence of the reaction was monitored at λem 400 nm (λex 340 nm).
Importantly, m^5C-probe 11a may also be applied to the inhibition study of DNMT3A. […] Work is currently underway to explore the possibility of employing both probes concurrently for the simultaneous detection of RNA and DNA m^5C MTase activity.

NSUN2 [4] = target: T1, NSUN2; assay: In vitro m5C-probe fluorescence RNA methyltransferase assay; format: biochemical; design: Full-length human NSUN2 (containing C-terminal MYC/DDK tag; TP314459); MYC/DDK (C); purchased Origene Technologies Inc., USA TP314459; settings: inhibitor 10 μM, probe 9a 5 μM, NSUN2 0.5 μM
Experimental: as §1
We next examined whether m^5C-probe 9a could function as fluorogenic substrate for RNA:m^5C MTase by testing it against NSUN2, which is of particular interest in light of emerging evidence linking NSUN2 with m^5C methylation of human mRNA ([14]) and its association with human cancers ([25–29]). […] The formation of methylated probe was measured by an increase in fluorescence signal at 465 nm (λex 360 nm).

[5] = UV-based thermal denaturation / thermodynamic analysis; format: physicochemical; settings: for increase in duplex stability on m5C methylation (ΔΔG°310): methylated vs unmethylated duplex
Experimental: UV-based thermal denaturation experiments
The melting of each duplex (1a, 1b, 7a, 7b, 11a and 11b) was performed on a Cary 300 UV-Visible Spectrophotometer (Varian) at a total strand concentration of 5 μM (unless otherwise stated) in 10 mM sodium phosphate buffer (pH 7.4), 150 mM NaCl and 20 mM MgCl2. Absorbance versus temperature profiles were recorded at 260 nm. The samples were first denatured by heating to 95 °C at 10 °C/min, followed by slow cooling to 25 °C at 0.4 °C/min to ensure a complete annealing of the strands. The melting transitions were then monitored by heating to 95 °C at 0.4 °C/min. To increase the accuracy of measurements, the sixth position was used to record the temperature data points by placing a temperature probe directly in the cuvette. Each oligo was measured at seven different concentrations (1, 2, 5, 10, 15, 20 and 30 μM), and a total of six independent melting transitions were measured for each concentration. The Tm values were determined by the Varian Cary Software using the baseline (alpha) method, which is defined as the point when the mole fraction of duplex was equal to 0.5. The melting transitions were generally found to be reproducible for all oligos studied.

[6] = CD conformational analysis at a range of MgCl2 concentrations; format: physicochemical; settings: 25°C, pH 7.4, 150 mM NaCl, MgCl2 0-300 mM
Experimental: Circular dichroism (CD) spectroscopy
The CD spectra for the duplexes were obtained using a JASCO J-810 spectropolarimeter, as previously described.4 Measurements were carried out at 25 °C with 5 μM probes in a 10 mM sodium phosphate buffer (pH 7.4) containing 150 mM NaCl, and varying MgCl2 concentrations (0, 5, 10, 20, 100, and 300 mM). The concentrations were determined by UV absorbance at 260 nm (A260) using a NanoDrop ND-1000 UV-Visible Spectrophotometer. The oligo solutions were first heated to 90 °C for 5 min, and re-annealed by slow cooling to 4 °C at a rate of 1 °C/min. CD spectra were then recorded in quartz cuvettes (path length 1 mm, 400 μL) from 220 nm to 330 nm at 25 °C using a 10 nm/min scan speed, a spectral band width of 1 nm and a time constant of 4 s. All the spectra were subtracted with the buffer blank and smoothed using the Savitsky-Golay algorithm (polynomial order 10). […]

[7] = HeLa cells, 30 min pre-incubation with inhibitor, probe 9a 10 μM, flow cytometry, read-out: IC50 against NSUN2
[8] = pH 7.4, 150 mM NaCl, 20 mM MgCl2

T1 sequence (Q08J23 whole entry): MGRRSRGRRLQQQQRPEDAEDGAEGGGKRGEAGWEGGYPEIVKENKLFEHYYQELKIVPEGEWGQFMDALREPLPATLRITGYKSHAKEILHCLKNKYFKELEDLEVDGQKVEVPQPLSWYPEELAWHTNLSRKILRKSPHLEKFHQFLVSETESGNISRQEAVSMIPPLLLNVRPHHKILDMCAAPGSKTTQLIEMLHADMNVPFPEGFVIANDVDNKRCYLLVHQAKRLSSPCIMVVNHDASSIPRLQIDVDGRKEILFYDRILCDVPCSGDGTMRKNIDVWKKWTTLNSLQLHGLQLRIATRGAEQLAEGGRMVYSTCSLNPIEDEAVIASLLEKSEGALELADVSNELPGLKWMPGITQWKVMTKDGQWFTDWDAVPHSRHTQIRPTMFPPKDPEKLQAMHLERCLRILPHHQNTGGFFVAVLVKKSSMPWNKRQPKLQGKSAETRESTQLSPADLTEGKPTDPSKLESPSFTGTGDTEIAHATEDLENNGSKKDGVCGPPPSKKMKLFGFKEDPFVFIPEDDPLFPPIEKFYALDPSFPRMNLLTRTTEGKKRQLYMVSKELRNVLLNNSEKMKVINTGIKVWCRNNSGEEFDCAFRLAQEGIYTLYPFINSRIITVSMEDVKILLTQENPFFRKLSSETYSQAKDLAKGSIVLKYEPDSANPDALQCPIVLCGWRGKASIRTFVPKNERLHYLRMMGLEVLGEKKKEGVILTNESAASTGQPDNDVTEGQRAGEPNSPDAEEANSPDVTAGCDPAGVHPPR
T2 sequence (Q9Y6K1 whole entry, looked up): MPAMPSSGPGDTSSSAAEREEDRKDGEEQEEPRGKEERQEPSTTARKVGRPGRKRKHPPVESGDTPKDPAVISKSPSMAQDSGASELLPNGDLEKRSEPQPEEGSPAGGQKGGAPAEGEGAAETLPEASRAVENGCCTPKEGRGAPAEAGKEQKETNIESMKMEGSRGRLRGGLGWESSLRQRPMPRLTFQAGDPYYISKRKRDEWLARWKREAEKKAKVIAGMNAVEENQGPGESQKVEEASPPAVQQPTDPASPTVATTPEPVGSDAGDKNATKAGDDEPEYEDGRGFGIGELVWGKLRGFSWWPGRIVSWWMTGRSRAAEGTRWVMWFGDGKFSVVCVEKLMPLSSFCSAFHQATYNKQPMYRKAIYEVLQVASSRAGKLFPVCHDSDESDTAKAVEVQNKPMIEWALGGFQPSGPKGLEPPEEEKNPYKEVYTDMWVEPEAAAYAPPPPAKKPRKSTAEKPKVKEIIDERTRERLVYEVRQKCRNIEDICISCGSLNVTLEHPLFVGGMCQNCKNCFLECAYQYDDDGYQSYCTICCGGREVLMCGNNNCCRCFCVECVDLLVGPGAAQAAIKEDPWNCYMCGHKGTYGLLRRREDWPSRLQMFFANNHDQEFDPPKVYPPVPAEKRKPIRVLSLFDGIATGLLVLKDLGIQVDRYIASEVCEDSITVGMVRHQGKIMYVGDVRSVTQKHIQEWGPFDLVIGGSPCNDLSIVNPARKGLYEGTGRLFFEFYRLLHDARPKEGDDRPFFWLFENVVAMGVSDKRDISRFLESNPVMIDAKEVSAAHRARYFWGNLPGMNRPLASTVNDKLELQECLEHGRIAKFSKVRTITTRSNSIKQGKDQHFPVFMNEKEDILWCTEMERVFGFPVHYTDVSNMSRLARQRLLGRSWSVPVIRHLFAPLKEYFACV

Molecule: O=C(O)CCCc1ccc2ccc3cccc4ccc1c2c34 [PBA, Pyrenebutanoic acid]
fluorescence quantum yield [1]: 0.061

Molecule: Nc1ncnc2c1ncn2[C@@H]1O[C@H](CSCC[C@H](N)C(=O)O)[C@@H](O)[C@H]1O [SAH, S-adenosyl-L-homocysteine]
IC50 (NSUN2 [2]; [7]): 3.1 µM

Molecule: O=c1nc2[nH]c(-c3ccccc3)cc2c[nH]1 [^pC, 6-phenylpyrrolocytosine]
quantum yield (ΦF) [3]: 0.31

Molecule: Nc1ncnc2c1ncn2[C@@H]1O[C@H](CO)[C@@H](O)[C@H]1O [adenosine]
IC50 (DNMT3A): 106 µM
IC50 (NSUN2 [2]; [7]): > 200 µM

Molecule: NC(CCS)C(=O)O (centres unmarked) [homocysteine]
IC50 (NSUN2 [2]; [7]): > 400 µM

Molecule: Nc1ncnc2c1ncn2[C@@H]1O[C@H](C[C@@H](N)CC[C@H](N)C(=O)O)[C@@H](O)[C@H]1O [sinefungin]
IC50 (DNMT3A): 0.7 µM
IC50 (NSUN2 [2]): 8.9 µM
effect of inhibitor on probe 9a fluorescence activation by NSUN2 (NSUN2 [4]): reduces significantly; also recorded: significant reduction in fluorescence intensity

Further lines, results first:

duplex stabilisation by m5C (ΔΔG°310 per m5C) ([5]; absence of MgCl2): 0.5 kcal/mol per m5C
increase in melting temperature (Tm) per m5C ([5]; absence of MgCl2): 1.7 °C per m5C
ΔΔH° 7a→7b [5, 8]: 7.3 kcal/mol
ΔΔS° 7a→7b [5, 8]: 31.6 cal/mol/K
increase in duplex stability on m5C methylation (ΔΔG°310) [5, 8]: 2.5 kcal/mol
Molecule: d(CG-C-GCG)2 [7a]

midpoint MgCl2 concentration for B-Z transition [6]: ~ 10 mM
free energy of B-to-Z transition (ΔΔG°T) ([5]; ΔG°310 of 7b (20 mM MgCl2) vs 7b* (no MgCl2)): ~1.5 kcal/mol
Molecule: d(CG-m^5C-GCG)2 [7b]

increase in duplex stability on m5C methylation (ΔΔG°310) [5, 8]: ~0.8 kcal/mol
Molecule: r(CG-C-GCG)2 [1a]
